Laboratory results: patent publication US5550165A, “Pharmaceutical compositions for the treatment of hereditary tyosinemia type I” (Zeneca Limited, priority 1991, dated 1996)

Experiments:
[1] = 90 day oral toxicity in rhesus monkeys; type: in vivo; settings: over 90 days, daily oral dose of 10 mg/kg
[2] = test system: tyrosinaemia (type I) patients; assay: Therapeutic evaluation in patients with tyrosinaemia (type I); type: in vivo, human
[3] = test system: tyrosinaemia (type I) patients; assay: as above; type: in vivo, human; remark: listed apart in the source
Method: Patients with an advanced form of the disease will be given the test composition (generally about 0.2-2.0 mg of active ingredient per kg body weight) orally. A blood sample will be taken daily during the first week and then less frequently at the discretion of the physician. Urine specimens will normally be collected daily. The indicators outlined below will be used to monitor the response to the test composition. The treatment will be maintained for up to 12 months if a clinically and biochemically satisfactory response is observed. If not, the dose of active ingredient administered will be increased stepwise to a maximum of about 2 mg/kg per day. Should any adverse indication occur, based on the biochemical monitoring or clinical assessment dosing will be stopped immediately.
The patients will be placed on a tyrosine-restricted diet with the aim of keeping plasma tyrosine concentrations below 500 μmol/L. A large increase in the tyrosine concentration in plasma is not expected to occur, but levels will be monitored throughout the dosing. Changes in the excretion of the biochemical markers mentioned below, such as succinylacetoacetate, succinylacetone and 5-aminolevulinic acid will be monitored, as will the effect on porphobilinogen synthase and α-fetoprotein concentration.
Tyrosine and Methionine--these amino acids will be determined in plasma by a standard technique using an amino-acid analyser.
Succinylacetoacetate and Succinylacetone--these compounds will be determined in urine by gas chromatography--mass spectrometry. Succinylacetone in plasma will be determined by measuring the inhibition of porphobilinogen synthase using a conventional assay.
5-Aminolevulinic acid--this will be determined in urine by a conventional colorimetric assay.
α-Fetoprotein--this will be determined in plasma by a conventional radioimmunoassay technique.
Porphobilinogen synthase--this will be determined in erythrocytes using a conventional colorimetric assay.
A patient was admitted to hospital after problems with slight nose bleedings and the parents noting swelling of the abdomen. Metabolic screening in hospital diagnosed tyrosinaemia (type I) based on the abnormal excretion of succinylacetone, succinylacetoacetate and 5-aminolevulinic acid in urine and a low activity of porphobilinogen synthase in erythrocytes. […] This was increased to 0.16 mg/kg b.w. after four days, and then to about 0.4 mg/kg by the end of the first 2 months, the dose being divided into two portions for morning and afternoon administration. The dose was then increased to about 0.6 mg/kg after a further 5 months.

[4] = Patient 2, capsule formulation 0.2 mg/kg b.w.
[5] = Patient 3, capsule formulation 0.2 mg/kg b.w., after 5 months 0.6 mg/kg b.w.
[6] = Patient 4, capsule formulation 0.2 mg/kg b.w., after 5 months 0.6 mg/kg b.w.
[7] = Patient 1, capsule formulation, 0.08 increased to about 0.6 mg/kg b.w.

O=C1CCCC(=O)C1C(=O)c1ccc(C(F)(F)F)cc1[N+](=O)[O-] [the Compound, 2-(2-nitro-4-trifluoromethylbenzoyl)-1,3-cyclohexanedione]
toxic or other adverse effects [1]: no significant toxic or other adverse effects
serum α-fetoprotein concentration after dosing ([2]; Patient 1, decreased from 7,200 μg/L during dosing): 96 µg/L
excretion of succinylacetone and succinylacetoacetate after treatment ([2]; Patient 1, urine, immediate decrease from 50 mmol/mol of creatinine): < 1 mmol/mol of creatinine
methionine concentration in plasma ([2]; Patient 1, very high initially, after start of treatment): dropped to normal levels very rapidly
clinical position of the patient ([2]; Patient 2, 0.2 mg/kg b.w.): improved
serum levels of α-fetoprotein after treatment ([2]; Patient 2, 0.2 mg/kg b.w., decreased from ca. 900 μg/L): 40 µg/L
serum levels of succinylacetone [2, 4]: decreased
urinary levels of 5-aminolevulinic acid [2, 4]: decreased
urinary levels of succinylacetone [2, 4]: decreased
porphobilinogen synthase activity ([2]; Patient 2, capsule formulation 0.2 mg/kg b.w., initial 3 month dosing period): increased to normal levels
clinical position of the patient ([2]; Patient 3, 0.2 then 0.6 mg/kg b.w.): improved
serum levels of α-fetoprotein after treatment ([2]; Patient 3, 0.2 then 0.6 mg/kg b.w., fell from ca. 900 μg/L): 11 µg/L
plasma levels of succinylacetone [2, 5]: substantially lowered
urinary levels of 5-aminolevulinic acid [2, 5]: substantially lowered
clinical position of the patient ([2]; Patient 4, 0.2 then 0.6 mg/kg b.w.): improved
serum levels of α-fetoprotein after treatment ([2]; Patient 4, 0.2 then 0.6 mg/kg b.w., fell from ca. 2000 μg/L): 48 µg/L
plasma levels of succinylacetone [2, 6]: substantially lowered
urinary levels of 5-aminolevulinic acid [2, 6]: substantially lowered
urinary levels of succinylacetone [2, 6]: substantially lowered
excretion of 5-aminolevulinic acid [3, 7]: concomitant decrease
porphobilinogen synthase activity in erythrocytes [3, 7]: immediate increase
overall clinical condition of the patient ([3]; Patient 1, during the treatment period): improved markedly
plasma succinylacetone levels ([3]; Patient 1, immediate decrease, after about 30 days): to the limit of detection
decrease of concentration of amino acids in urine ([3]; Patient 1, very high before treatment, after treatment): 5-10 times
urinary levels of succinylacetone [3, 5]: substantially lowered
